Test results reported in paper PMC5078989, “Targeted inhibition of the COP9 signalosome for treatment of cancer” (Nature Communications, 2016).

Test system: panel of cancer cell lines
Assay: Cell viability (CellTiter-Glo) dose-response across cancer cell line panel;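 note: after 72 h compound incubation with CellTiter-Glo ATP readout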
Type: cell-based, human
Settings: Homo sapiens
Excerpt: Next, we explored the effect of CSN5 inhibition on the viability of cancer cells. To obtain a comprehensive picture, we generated dose–response curves with a CSN5 inhibitor across more than 500 cancer cell lines in a previously described standardized setting[47] (Supplementary Data 1).
A standardized CellTiter-Glo Assay (Promega #G7570) based on the quantification of ATP was applied according to the manufacturer's protocol to measure the amount of viable cells in culture. In brief, cells were seeded into 384-well plates at optimal density for each cell line. After 4 h, compounds were added at different concentrations in growth medium and incubated for another 72 h in a humidifying chamber at 37 °C and 5% CO2. […] EC50 values were calculated from the plot of percentage of inhibition versus inhibitor concentration using the nonlinear regression analysis software Origin 7.5SR6 (OriginLab Corp.).

EC50 (MOLT-16, MOLT-16): 134 nM
EC50 (MSTO-211H): 366 nM
EC50 (MV4-11, MV-4-11): 74.8 nM
EC50 (Malme-3M): 521 nM
EC50 (MeWo): 279 nM
EC50 (Mono-Mac-1, MONO-MAC-1): 233 nM
EC50 (NALM-6, NALM-6): 432 nM
EC50 (NB1, NB-1): 213 nM
EC50 (NB-4, NB-4): 60.9 nM
EC50 (NCI-H23, NCI-H23): 532 nM
EC50 (NCI-H28, NCI-H28): 10800 nM
EC50 (NCI-H82, NCI-H82): 89.6 nM
EC50 (NCI-H146, NCI-H146): 240 nM
EC50 (NCI-H211, NCI-H211): 2840 nM
EC50 (NCI-H322, NCI-H322): 767 nM
EC50 (NCI-H460, NCI-H460): 1460 nM
EC50 (NCI-H520, NCI-H520): 4070 nM
EC50 (NCI-H647, NCI-H647): 3220 nM
EC50 (NCI-H650, NCI-H650): 424 nM
EC50 (NCI-H661, NCI-H661): 174 nM
EC50 (NCI-H747, NCI-H747): 2320 nM
EC50 (NCI-H810, NCI-H810): 26.5 nM
EC50 (NCI-H838, NCI-H838): 259 nM
EC50 (NCI-H841, NCI-H841): 204 nM
EC50 (NCI-H1048, NCI-H1048): 79.9 nM
EC50 (NCI-H1299, NCI-H1299): 460 nM
EC50 (NCI-H1339, NCI-H1339): 67 nM
EC50 (NCI-H1341): 86.4 nM
EC50 (NCI-H1355, NCI-H1355): 700 nM
EC50 (NCI-H1373, NCI-H1373): 655 nM
EC50 (NCI-H1437, NCI-H1437): 2820 nM
EC50 (NCI-H1568, NCI-H1568): 680 nM
EC50 (NCI-H1581, NCI-H1581): 296 nM
EC50 (NCI-H1650, NCI-H1650): 5840 nM
EC50 (NCI-H1666, NCI-H1666): 2270 nM
EC50 (NCI-H1693, NCI-H1693): 541 nM
EC50 (NCI-H1703, NCI-H1703): 32.1 nM
EC50 (NCI-H1755, NCI-H1755): 3310 nM
EC50 (NCI-H1792, NCI-H1792): 7900 nM
EC50 (NCI-H1915, NCI-H1915): 1160 nM
EC50 (NCI-H1975, NCI-H1975): 2710 nM
EC50 (NCI-H2023, NCI-H2023): 376 nM
EC50 (NCI-H2030, NCI-H2030): 402 nM
EC50 (NCI-H2073, NCI-H2073): 399 nM
EC50 (NCI-H2087, NCI-H2087): 493 nM
EC50 (NCI-H2110, NCI-H2110): 238 nM
EC50 (NCI-H2122, NCI-H2122): 335 nM
EC50 (NCI-H2126, NCI-H2126): 15200 nM
EC50 (NCI-H2170, NCI-H2170): 335 nM
EC50 (NCI-H2172, NCI-H2172): 10700 nM
EC50 (NCI-H2228, NCI-H2228): 1330 nM
EC50 (NCI-H2286, NCI-H2286): 119 nM
EC50 (NCI-H2444, NCI-H2444): 413 nM
EC50 (NCI-H2452, NCI-H2452): 1810 nM
EC50 (NCI-H3255, NCI-H3255): > 30000 nM
EC50 (NCI-N87, NCI-N87): 2980 nM
EC50 (NO36): 873 nM
EC50 (NOMO-1, NOMO-1): 137 nM
EC50 (NUGC-3, NUGC-3): 929 nM
EC50 (OCI-AML-3, OCI-AML3): 93.3 nM
EC50 (OCI-AML-5, OCI-AML5): 240 nM
EC50 (OCI-Ly3, OCI-LY3): 112 nM
EC50 (OCI-M1, OCI-M1): 34.3 nM
EC50 (OUMS-23, OUMS-23): 970 nM
EC50 (OV56, OV56): 387 nM
EC50 (OVCAR-3, NIH:OVCAR-3): 304 nM
EC50 (OVCAR-4, OVCAR-4): 789 nM
EC50 (OVISE): 791 nM
EC50 (P3HR-1, P3HR-1): 283 nM
EC50 (P12-Ichikawa): 208 nM
EC50 (P31-FUJ, P31/FUJ): 285 nM
EC50 (PANC-1, PANC-1): 3930 nM
EC50 (PANC-03-27, Panc 03.27): 401 nM
EC50 (PC-3, PC-3): 570 nM
EC50 (PC-14, PC-14): 884 nM
EC50 (PE/CA-PJ34 (clone C12)): 86.1 nM
EC50 (PE/CA-PJ49): 297 nM
EC50 (PF-382, PF-382): 216 nM
EC50 (PK-1, PK-1): 1370 nM
EC50 (PK-45H): 1610 nM
EC50 (PK-59, PK-59): 2030 nM
EC50 (PL45, PL45): 305 nM
EC50 (PL-21, PL-21): 136 nM
EC50 (PLC-PRF-5, PLC/PRF/5): 3760 nM
EC50 (PSN1, PSN1): 1190 nM
EC50 (PaTu 8902, PA-TU-8902): 898 nM
EC50 (PaTu 8988s, PA-TU-8988S): 12200 nM
EC50 (PaTu 8988t, PA-TU-8988T): 888 nM
EC50 (Panc 02.03, Panc 02.03): 3430 nM
EC50 (Panc 04.03, Panc 04.03): 245 nM
EC50 (Panc1005, Panc 10.05): 368 nM
EC50 (RCM-1, RCM-1): 8840 nM
EC50 (RD): 722 nM
EC50 (RD-ES): 162 nM
EC50 (RERF-LC-AI): 437 nM
EC50 (RERF-LC-MS): 719 nM
EC50 (RKN): 342 nM
EC50 (RKO): 163 nM
EC50 (RMUG-S): 4130 nM
EC50 (RPMI 8402, RPMI-8402): 92 nM
EC50 (RPMI-7951, RPMI-7951): 1020 nM
EC50 (RT-112, RT-112): 851 nM
EC50 (RVH-421, RVH-421): 727 nM
EC50 (Rh41, RH-41): 32.4 nM
EC50 (SCC-25, SCC-25): 561 nM
EC50 (SCaBER): 3560 nM
EC50 (SEM): 487 nM
EC50 (SF8657): > 30000 nM
EC50 (SF-268, SF-268): 472 nM
EC50 (SH-4, SH-4): 147 nM
EC50 (SH-10-TC): 19100 nM
EC50 (SH-SY5Y): 561 nM
EC50 (SJRH30, SJRH30): 72.9 nM
EC50 (SK-CO-1, SK-CO-1): 258 nM
EC50 (SK-ES1, SK-ES-1): 177 nM
EC50 (SK-HEP1, SK-HEP-1): 384 nM
EC50 (SK-LU-1, SK-LU-1): 915 nM
EC50 (SK-MEL3, SK-MEL-3): 722 nM
EC50 (SK-MEL-2, SK-MEL-2): 370 nM
EC50 (SK-MEL-5, SK-MEL-5): 552 nM
EC50 (SK-MEL-28, SK-MEL-28): 603 nM
EC50 (SK-MEL-30, SK-MEL-30): 418 nM
EC50 (SK-MES-1, SK-MES-1): 725 nM
EC50 (SK-N-SH): 1140 nM
EC50 (SK-OV-3, SK-OV-3): 1440 nM
EC50 (SKM-1, SKM-1): 85.6 nM
EC50 (SKNBE2, SK-N-BE(2)): 334 nM
EC50 (SNB-19, SNB-19): 626 nM
EC50 (SNG-M): 249 nM
EC50 (SNU668, SNU-668): 1520 nM
EC50 (SNU878, SNU-878): 746 nM
EC50 (SNU-8): 552 nM
EC50 (SNU-16, SNU-16): 272 nM
EC50 (SNU-61): 19000 nM
EC50 (SNU-81): 175 nM
EC50 (SNU-175): 317 nM
EC50 (SNU-213): 2080 nM
EC50 (SNU-324): 685 nM
EC50 (SNU-349): 319 nM
EC50 (SNU-387, SNU-387): 3860 nM
EC50 (SNU-398, SNU-398): 294 nM
EC50 (SNU-410): 351 nM
EC50 (SNU-423, SNU-423): 620 nM
EC50 (SNU-449, SNU-449): 3540 nM
EC50 (SNU-475, SNU-475): 2310 nM
SMILES: NS(=O)(=O)OC[C@@H]1C[C@@H](n2ccc3c(N[C@H]4CCc5ccccc54)ncnc32)C[C@@H]1O [MLN4924]
